Source: the NIST ThermoML archive (doi:10.1021/je060097q)
± gives the expanded uncertainty stated by the source.

Settings: Capillary rise

A surface tension liquid-gas (243.08 K) of 24.08 ± 0.41 mN/m, a surface tension liquid-gas (248.01 K) of 23.43 ± 0.41 mN/m and a surface tension liquid-gas (253.11 K) of 22.84 ± 0.41 mN/m were found for `COC(C)(C)C` [2-methoxy-2-methylpropane] in this work. For the same compound, the surface tension liquid-gas (258.13 K) was 22.32 ± 0.41 mN/m, the surface tension liquid-gas (263.1 K) was 21.65 ± 0.41 mN/m and the surface tension liquid-gas (268.13 K) was 20.97 ± 0.4 mN/m. The surface tension liquid-gas (273.16 K) was 20.52 ± 0.4 mN/m, the surface tension liquid-gas (278.11 K) was 19.99 ± 0.4 mN/m and the surface tension liquid-gas (283.12 K) was 19.35 ± 0.4 mN/m. It also gave a surface tension liquid-gas (288.13 K) of 18.96 ± 0.4 mN/m, a surface tension liquid-gas (293.07 K) of 18.53 ± 0.4 mN/m and a surface tension liquid-gas (298.08 K) of 17.75 ± 0.4 mN/m. It also gave a surface tension liquid-gas (303.11 K) of 17.23 ± 0.4 mN/m, a surface tension liquid-gas (308.15 K) of 16.71 ± 0.4 mN/m and a surface tension liquid-gas (313.16 K) of 16.25 ± 0.4 mN/m. The surface tension liquid-gas (318.11 K) was 15.61 ± 0.4 mN/m, the surface tension liquid-gas (323.16 K) was 15.09 ± 0.4 mN/m and the surface tension liquid-gas (328.14 K) was 14.52 ± 0.4 mN/m. For the same compound, the surface tension liquid-gas (333.15 K) was 14.02 ± 0.4 mN/m, the surface tension liquid-gas (338.16 K) was 13.56 ± 0.4 mN/m and the surface tension liquid-gas (343.13 K) was 13.06 ± 0.4 mN/m. The surface tension liquid-gas (348.13 K) was 12.5 ± 0.4 mN/m, the surface tension liquid-gas (353.13 K) was 11.94 ± 0.4 mN/m and the surface tension liquid-gas (358.15 K) was 11.55 ± 0.4 mN/m. It also gave a surface tension liquid-gas (363.13 K) of 10.92 ± 0.4 mN/m, a surface tension liquid-gas (368.13 K) of 10.53 ± 0.4 mN/m and a surface tension liquid-gas (373.12 K) of 9.946 ± 0.4 mN/m. It also gave a surface tension liquid-gas (378.12 K) of 9.534 ± 0.4 mN/m, a surface tension liquid-gas (383.12 K) of 8.956 ± 0.4 mN/m and a surface tension liquid-gas (388.14 K) of 8.518 ± 0.4 mN/m. The surface tension liquid-gas (393.13 K) was 8.006 ± 0.4 mN/m.

A surface tension liquid-gas (238.07 K) of 28.12 ± 0.4 mN/m, a surface tension liquid-gas (243.12 K) of 27.42 ± 0.4 mN/m and a surface tension liquid-gas (248.13 K) of 26.76 ± 0.4 mN/m were found for `COCOC` [dimethoxymethane] in this work. It also gave a surface tension liquid-gas (253.12 K) of 26.21 ± 0.4 mN/m, a surface tension liquid-gas (258.12 K) of 25.63 ± 0.4 mN/m and a surface tension liquid-gas (263.08 K) of 24.83 ± 0.4 mN/m. The surface tension liquid-gas (268.09 K) was 24.23 ± 0.4 mN/m, the surface tension liquid-gas (273.09 K) was 23.63 ± 0.4 mN/m and the surface tension liquid-gas (278.08 K) was 23.11 ± 0.4 mN/m. For the same compound, the surface tension liquid-gas (283.07 K) was 22.39 ± 0.4 mN/m, the surface tension liquid-gas (288.08 K) was 21.75 ± 0.4 mN/m and the surface tension liquid-gas (293.05 K) was 21.02 ± 0.4 mN/m. It also gave a surface tension liquid-gas (298.04 K) of 20.36 ± 0.4 mN/m, a surface tension liquid-gas (303.16 K) of 19.7 ± 0.4 mN/m and a surface tension liquid-gas (308.15 K) of 18.99 ± 0.4 mN/m. The surface tension liquid-gas (313.16 K) was 18.4 ± 0.4 mN/m, the surface tension liquid-gas (318.16 K) was 17.67 ± 0.4 mN/m and the surface tension liquid-gas (323.15 K) was 17.16 ± 0.4 mN/m. The surface tension liquid-gas (328.13 K) was 16.56 ± 0.4 mN/m, the surface tension liquid-gas (333.16 K) was 15.88 ± 0.4 mN/m and the surface tension liquid-gas (338.16 K) was 15.32 ± 0.4 mN/m. It also gave a surface tension liquid-gas (343.15 K) of 14.65 ± 0.4 mN/m, a surface tension liquid-gas (348.14 K) of 14.02 ± 0.4 mN/m and a surface tension liquid-gas (353.15 K) of 13.34 ± 0.4 mN/m. It also gave a surface tension liquid-gas (358.15 K) of 12.83 ± 0.4 mN/m, a surface tension liquid-gas (363.15 K) of 12.27 ± 0.4 mN/m and a surface tension liquid-gas (368.15 K) of 11.58 ± 0.4 mN/m. For the same compound, the surface tension liquid-gas (373.15 K) was 11.01 ± 0.4 mN/m, the surface tension liquid-gas (378.15 K) was 10.36 ± 0.4 mN/m and the surface tension liquid-gas (383.13 K) was 9.778 ± 0.4 mN/m. The surface tension liquid-gas (388.14 K) was 9.175 ± 0.4 mN/m.
